Measured values from patent US5202315A, “Cephalosporin compounds” (Lucky, Ltd., priority 1989, dated 1993).
Values after ≈ are worked out from the molar mass of the structure shown. Read-outs that look alike come from different tables or passages of the source.

What was measured:
Format in all cases: cell-based
[1] = tested on: Acinetobacter calcoaceticus ATCC 15473; assay: Antibacterial activity, MIC; settings: ATCC15473, ATCC 15473, agar two-fold dilution, 37° C., 20 hours, read-out: MIC
Summary of the method: (§1)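 Incubation at 37 °C for 20 h followed inoculation of 2 μl standard strain (10^7 CFU/ml) onto agar carrying the compound. Compound was incorporated into Mueller-Hinton agar as two-fold serial dilutions.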

[2] = tested on: Bacillus cereus ATCC 11778; assay: Antibacterial activity, MIC; settings: ATCC11778, ATCC 11778, agar two-fold dilution, 37° C., 20 hours, read-out: MIC
Summary of the method: as §1

[3] = tested on: Bacillus megaterium ATCC 9885; assay: Antibacterial activity, MIC; settings: Priestia megaterium, ATCC9885; ATCC 9885; agar two-fold dilution, 37° C., 20 hours; read-out: MIC
Summary of the method: as §1

[4] = tested on: Citrobacter freundii ATCC 8090; assay: Antibacterial activity, MIC; settings: ATCC8090, ATCC 8090, agar two-fold dilution, 37° C., 20 hours, read-out: MIC
Summary of the method: as §1

[5] = tested on: Enterobacter aerogenes ATCC 29751; assay: Antibacterial activity, MIC; settings: Klebsiella aerogenes, ATCC29751; ATCC 29751; agar two-fold dilution, 37° C., 20 hours; read-out: MIC
Summary of the method: as §1

[6] = tested on: Enterobacter cloacae ATCC 27508; assay: Antibacterial activity, MIC; settings: ATCC27508, ATCC 27508, agar two-fold dilution, 37° C., 20 hours, read-out: MIC
Summary of the method: as §1

[7] = tested on: Escherichia coli ATCC 10536; assay: Antibacterial activity, MIC; settings: ATCC10536, agar two-fold dilution, 37° C., 20 hours
Summary of the method: as §1

[8] = tested on: Escherichia coli ATCC 25922; assay: Antibacterial activity, MIC; settings: ATCC25922, agar two-fold dilution, 37° C., 20 hours
Summary of the method: as §1

[9] = tested on: Klebsiella pneumoniae ATCC 10031; assay: Antibacterial activity, MIC; settings: ATCC10031, ATCC 10031, agar two-fold dilution, 37° C., 20 hours, read-out: MIC
Summary of the method: as §1

[10] = tested on: Micrococcus luteus ATCC 9341; assay: Antibacterial activity, MIC; settings: ATCC9341, ATCC 9341, agar two-fold dilution, 37° C., 20 hours, read-out: MIC
Summary of the method: as §1

[11] = tested on: Morganella morganii ATCC 8076h; assay: Antibacterial activity, MIC; settings: ATCC8076H, agar two-fold dilution, 37° C., 20 hours
Summary of the method: as §1

[12] = tested on: Proteus mirabilis ATCC 25933; assay: Antibacterial activity, MIC; settings: ATCC25933, ATCC 25933, agar two-fold dilution, 37° C., 20 hours, read-out: MIC
Summary of the method: as §1

[13] = tested on: Proteus vulgaris ATCC 6059; assay: Antibacterial activity, MIC; settings: ATCC6059, ATCC 6059, agar two-fold dilution, 37° C., 20 hours, read-out: MIC
Summary of the method: as §1

[14] = tested on: Providencia rettgeri ATCC 9250; assay: Antibacterial activity, MIC; settings: ATCC9250, agar two-fold dilution, 37° C., 20 hours
Summary of the method: as §1

[15] = tested on: Pseudomonas aeruginosa ATCC 10145; assay: Antibacterial activity, MIC; settings: ATCC10145, ATCC 10145, agar two-fold dilution, 37° C., 20 hours, read-out: MIC
Summary of the method: as §1

[16] = tested on: Pseudomonas aeruginosa ATCC 25619; assay: Antibacterial activity, MIC; settings: ATCC25619, ATCC 25619, agar two-fold dilution, 37° C., 20 hours, read-out: MIC
Summary of the method: as §1

[17] = tested on: Pseudomonas aeruginosa ATCC 27853; assay: Antibacterial activity, MIC; settings: ATCC27853, ATCC 27853, agar two-fold dilution, 37° C., 20 hours, read-out: MIC
Summary of the method: as §1

[18] = tested on: Salmonella typhimurium ATCC 14028; assay: Antibacterial activity, MIC; settings: Salmonella enterica; ATCC 14028; agar two-fold dilution, 37° C., 20 hours; read-out: MIC
Summary of the method: as §1

[19] = tested on: Serratia marcescens ATCC 27117; assay: Antibacterial activity, MIC; settings: ATCC27117, ATCC 27117, agar two-fold dilution, 37° C., 20 hours, read-out: MIC
Summary of the method: as §1

[20] = tested on: Shigella flexneri ATCC 11836; assay: Antibacterial activity, MIC; settings: ATCC11836, agar two-fold dilution, 37° C., 20 hours
Summary of the method: as §1

[21] = tested on: Shigella sonnei ATCC 11060; assay: Antibacterial activity, MIC; settings: ATCC11060, ATCC 11060, agar two-fold dilution, 37° C., 20 hours, read-out: MIC
Summary of the method: as §1

[22] = tested on: Staphylococcus aureus ATCC 10537; assay: Antibacterial activity, MIC; settings: ATCC10537, ATCC 10537, agar two-fold dilution, 37° C., 20 hours, read-out: MIC
Summary of the method: as §1

[23] = tested on: Staphylococcus aureus ATCC 6538p; assay: Antibacterial activity, MIC; settings: ATCC6538P, ATCC 6538p, agar two-fold dilution, 37° C., 20 hours, read-out: MIC
Summary of the method: as §1

[24] = tested on: Staphylococcus epidermidis ATCC 12228; assay: Antibacterial activity, MIC; settings: ATCC12228, ATCC 12228, agar two-fold dilution, 37° C., 20 hours, read-out: MIC
Summary of the method: as §1

[25] = tested on: Streptococcus faecalis ATCC 29212; assay: Antibacterial activity, MIC; settings: Enterococcus faecalis, ATCC29212; ATCC 29212; agar two-fold dilution, 37° C., 20 hours; read-out: MIC
Summary of the method: as §1

[26] = tested on: Escherichia coli; assay: Antibacterial activity against clinically isolated strains, MIC; settings: 38 clinical isolates, broth microdilution test
[27] = tested on: Klebsiella pneumoniae; assay: as above; settings: 10 clinical isolates, broth microdilution test; for MIC90: read-out: MIC 90%
[28] = tested on: Staphylococcus aureus methicillin susceptible; assay: as above
[29] = tested on: Staphylococcus aureus methicillin resistant; assay: as above; settings: methicillin resistant, 7 clinical isolates, broth microdilution test; for MIC90: read-out: MIC 90%
[30] = tested on: Pseudomonas aeruginosa; assay: as above; settings: for MIC50: 54 clinical isolates, broth microdilution test
[31] = methicillin susceptible, 42 clinical isolates, broth microdilution test

CCO/N=C(\C(=O)NC1C(=O)N2C(C(=O)[O-])=C(CSc3nc(N)cc(N)[n+]3C)CSC12)c1nsc(N)n1 (stereo not shown) [Compound I-20]
MIC [1]: 2 µg/mL (≈ 3.53 µM) | MIC [2]: 32 µg/mL (≈ 56.5 µM) | MIC [3]: 0.13 µg/mL (≈ 0.229 µM) | MIC [4]: 0.13 µg/mL (≈ 0.229 µM) | MIC [5]: 0.25 µg/mL (≈ 0.441 µM) | MIC [6]: 0.016 µg/mL (≈ 0.0282 µM) | MIC [7]: 0.13 µg/mL (≈ 0.229 µM) | MIC [8]: 0.13 µg/mL (≈ 0.229 µM) | MIC [9]: 0.016 µg/mL (≈ 0.0282 µM) | MIC [10]: 0.031 µg/mL (≈ 0.0547 µM) | MIC [11]: 0.016 µg/mL (≈ 0.0282 µM) | MIC [12]: 0.5 µg/mL (≈ 0.882 µM) | MIC [13]: 1 µg/mL (≈ 1.76 µM) | MIC [14]: ≤ 0.008 µg/mL | MIC [15]: 4 µg/mL (≈ 7.06 µM) | MIC [16]: 1 µg/mL (≈ 1.76 µM) | MIC [17]: 2 µg/mL (≈ 3.53 µM) | MIC [18]: 0.5 µg/mL (≈ 0.882 µM) | MIC [19]: 0.25 µg/mL (≈ 0.441 µM) | MIC [20]: 0.031 µg/mL (≈ 0.0547 µM) | MIC [21]: 0.13 µg/mL (≈ 0.229 µM) | MIC [22]: 0.25 µg/mL (≈ 0.441 µM) | MIC [23]: 0.5 µg/mL (≈ 0.882 µM) | MIC [24]: 0.25 µg/mL (≈ 0.441 µM) | MIC [25]: 32 µg/mL (≈ 56.5 µM) | MIC50 [26]: 0.063 µg/mL (≈ 0.111 µM) | MIC90 [26]: 0.25 µg/mL (≈ 0.441 µM) | MIC50 [27]: 0.13 µg/mL (≈ 0.229 µM) | MIC90 [27]: 0.13 µg/mL (≈ 0.229 µM) | MIC90 [28]: 0.5 µg/mL (≈ 0.882 µM) | MIC50 [28, 31]: 0.5 µg/mL (≈ 0.882 µM) | MIC50 [29]: 16 µg/mL (≈ 28.2 µM) | MIC90 [29]: 32 µg/mL (≈ 56.5 µM) | MIC90 [30]: 16 µg/mL (≈ 28.2 µM) | MIC50 [30]: 4 µg/mL (≈ 7.06 µM)

C#CCO/N=C(\C(=O)NC1C(=O)N2C(C(=O)[O-])=C(CSc3nc(N)cc(N)[n+]3CC)CSC12)c1csc(N)n1 (stereo not shown) [Compound I-47]
MIC [1]: 4 µg/mL (≈ 6.78 µM) | MIC [2]: 8 µg/mL (≈ 13.6 µM) | MIC [3]: 0.13 µg/mL (≈ 0.22 µM) | MIC [4]: 0.13 µg/mL (≈ 0.22 µM) | MIC [5]: 0.5 µg/mL (≈ 0.848 µM) | MIC [6]: 0.016 µg/mL (≈ 0.0271 µM) | MIC [7]: 0.13 µg/mL (≈ 0.22 µM) | MIC [8]: 0.13 µg/mL (≈ 0.22 µM) | MIC [9]: ≤ 0.008 µg/mL | MIC [10]: ≤ 0.008 µg/mL | MIC [11]: ≤ 0.008 µg/mL | MIC [12]: 0.13 µg/mL (≈ 0.22 µM) | MIC [13]: 0.13 µg/mL (≈ 0.22 µM) | MIC [14]: ≤ 0.008 µg/mL | MIC [15]: 8 µg/mL (≈ 13.6 µM) | MIC [16]: 1 µg/mL (≈ 1.7 µM) | MIC [17]: 2 µg/mL (≈ 3.39 µM) | MIC [18]: 0.25 µg/mL (≈ 0.424 µM) | MIC [19]: 0.13 µg/mL (≈ 0.22 µM) | MIC [20]: 0.016 µg/mL (≈ 0.0271 µM) | MIC [21]: 0.13 µg/mL (≈ 0.22 µM) | MIC [22]: 0.13 µg/mL (≈ 0.22 µM) | MIC [23]: 0.25 µg/mL (≈ 0.424 µM) | MIC [24]: 0.031 µg/mL (≈ 0.0526 µM) | MIC [25]: 32 µg/mL (≈ 54.3 µM) | MIC50 [26]: 0.063 µg/mL (≈ 0.107 µM) | MIC90 [26]: 0.25 µg/mL (≈ 0.424 µM) | MIC50 [27]: 0.25 µg/mL (≈ 0.424 µM) | MIC90 [27]: 0.25 µg/mL (≈ 0.424 µM) | MIC50 [28, 31]: 0.25 µg/mL (≈ 0.424 µM) | MIC90 ([28]; methicillin susceptible, 42 clinical isolates, broth microdilution test, read-out: MIC 90%): 0.25 µg/mL (≈ 0.424 µM) | MIC50 [29]: 64 µg/mL (≈ 109 µM) | MIC90 [29]: 64 µg/mL (≈ 109 µM) | MIC90 [30]: 16 µg/mL (≈ 27.1 µM) | MIC50 [30]: 4 µg/mL (≈ 6.78 µM)
